# Results taken from ChEMBL document CHEMBL5357057, “Pleosmaranes A-R, Isopimarane and 20-nor Isopimarane Diterpenoids with Anti-inflammatory Activities from the Mangrove Endophytic Fungus Pleosporales sp. HNQQJ-1” (J Nat Prod, 2024).
# Experiments:
# RAW264.7 [1] = experiment: Anti-inflammatory activity in mouse RAW264.7 cells assessed as inhibition of LPS-induced NO production incubated for 24 hrs by Griess reagent based analysis; format: functional, cell-based; settings: RAW264.7, 24 h
# RAW264.7 [2] = experiment: Cytotoxicity against mouse RAW264.7 cells assessed as reduction in cell viability at 5 to 50 uM measured for 24 hrs by MTT assay; format: toxicity, cell-based; settings: raw264.7, 24 h, dose 5-50 µM
Structure (SMILES),IC50 (RAW264.7 [1]),Activity (RAW264.7 [2])
C=C[C@@]1(C)CCC2=C(C1)C(=O)C[C@H]1C(C)(C)[C@H](O)C[C@@H](O)[C@]21C,> 50 µM,Non-Toxic
C=C[C@@]1(C)CCc2c3c(cc(O)c2C1=O)[C@](C)(CO)CCC3,19 µM,Non-Toxic
C=C[C@@]1(C)CCC2=C([C@H]3O[C@@H](OC)[C@@]24CCCC(C)(C)[C@@H]4[C@H]3OC(C)=O)[C@H]1O,37 µM,Non-Toxic
C=C[C@@]1(C)CCc2c3c(cc(O)c2[C@@H]1OC)C(C)(C)CCC3,30 µM,Non-Toxic
C=C[C@]1(C)C=C2C(=O)C[C@H]3C(C)(C)CC[C@@H](OC(C)=O)[C@]3(C)[C@@]2(O)CC1,33 µM,Non-Toxic
C=C[C@@]1(C)CC[C@@]2(O)C(=C[C@H](O)[C@H]3C(C)(C)CC[C@@H](OC(C)=O)[C@@]32C)[C@H]1O,> 50 µM,Non-Toxic
C=C[C@]1(C)C=C2C(=O)C[C@H]3C(C)(C)CCC[C@]3(C(=O)O)[C@@]2(O)CC1 [SPHAEROPSIDIN C],31 µM,Non-Toxic
C=C[C@@]1(C)CCc2c3c(cc(O)c2[C@@H]1OC)C(C)(C)[C@@H](O)CC3,35 µM,Non-Toxic
C=C[C@]1(C)C=C2[C@@H](OC(C)=O)[C@H]3OC(=O)[C@@]4(CCCC(C)(C)[C@H]34)[C@@]2(O)CC1,35 µM,Non-Toxic
C=C[C@@]1(C)CCc2c3c(cc(O)c2[C@@H]1O)C(C)(C)CCC3,40 µM,Non-Toxic
C=C[C@@]1(C)CCc2c3c(cc(O)c2[C@@H]1OC)[C@@](C)(CO)CCC3,42 µM,Non-Toxic
C=C[C@@]1(C)CCc2c(c(O)cc3c2CCCC3(C)C)C1,> 50 µM,Non-Toxic
C=C[C@@]1(C)CCc2c3c(cc(O)c2[C@H]1O)C(C)(C)CCC3,> 50 µM,Non-Toxic
C=C[C@]1(C)C=C2[C@@H](O)[C@H](O)[C@H]3C(C)(C)CC[C@@H](OC(C)=O)[C@]3(C)[C@@]2(O)CC1,35 µM,Non-Toxic
C=C[C@]1(C)C=C2[C@](O)(CC1)[C@@]13CCCC(C)(C)[C@@H]1[C@@H](OC(C)=O)[C@]2(O)OC3,30 µM,Non-Toxic
C=C[C@@]1(C)C[C@H](O)c2c3c(cc(O)c2[C@H]1OC)C(C)(C)CCC3,38 µM,Non-Toxic
C=C[C@]1(C)C=C2[C@@H](O)C[C@H]3C(C)(C)CC[C@@H](OC(C)=O)[C@]3(C)[C@@]2(O)CC1,25 µM,Non-Toxic
C=C[C@@]1(C)CCc2c3c(cc(O)c2[C@H]1OC)[C@](C)(CO)CCC3,42 µM,Non-Toxic
C=C[C@@]1(C)CCc2c3c(cc(O)c2[C@H]1OC)C(C)(C)CCC3,37 µM,Non-Toxic
C=C[C@@]1(C)CCc2c3c(cc(O)c2[C@H]1O)[C@](C)(CO)CCC3,> 50 µM,Non-Toxic
C=C[C@]1(C)C=C2[C@H]3O[C@@H](O)[C@@]4(CCCC(C)(C)[C@@H]4[C@H]3OC(C)=O)[C@@]2(O)CC1,33 µM,Non-Toxic
C=C[C@@]1(C)CCc2c3c(cc(O)c2[C@@H]1O)[C@@](C)(CO)CCC3,> 50 µM,Non-Toxic
